Where two headings read alike, the source gives them in different places.
How the values were obtained:
EGFR wild type = biological target: T1, EGFR wild type (Homo sapiens, UniProt P00533); assay: Inhibition of EGFR wild type biochemical enzymatic activity (HTRF); conditions: EGFR WT, 1 mM ATP, 1 h, room temperature, read-out: IC50 (nM) @WT
T1 construct: purchased Carna Bio
In short: (§1)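 For IC50 determination by four-parameter logistic fit, EDTA-quenched 1 h room-temperature reactions (1 mM ATP, 1 μM TK Substrate-biotin) were read by HTRF. The 665/615 nm emission ratio after 320 nm excitation served as the activity signal.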

EGFR L858R = biological target: T2, EGFR L858R (Homo sapiens, UniProt P00533, L858R); assay: Inhibition of EGFR L858R biochemical enzymatic activity (HTRF); conditions: 1 mM ATP, 1 h, room temperature, read-out: IC50 (nM) @L858R
T2 construct: purchased Carna Bio
T2 sequence (P00533 25-1210 L858R): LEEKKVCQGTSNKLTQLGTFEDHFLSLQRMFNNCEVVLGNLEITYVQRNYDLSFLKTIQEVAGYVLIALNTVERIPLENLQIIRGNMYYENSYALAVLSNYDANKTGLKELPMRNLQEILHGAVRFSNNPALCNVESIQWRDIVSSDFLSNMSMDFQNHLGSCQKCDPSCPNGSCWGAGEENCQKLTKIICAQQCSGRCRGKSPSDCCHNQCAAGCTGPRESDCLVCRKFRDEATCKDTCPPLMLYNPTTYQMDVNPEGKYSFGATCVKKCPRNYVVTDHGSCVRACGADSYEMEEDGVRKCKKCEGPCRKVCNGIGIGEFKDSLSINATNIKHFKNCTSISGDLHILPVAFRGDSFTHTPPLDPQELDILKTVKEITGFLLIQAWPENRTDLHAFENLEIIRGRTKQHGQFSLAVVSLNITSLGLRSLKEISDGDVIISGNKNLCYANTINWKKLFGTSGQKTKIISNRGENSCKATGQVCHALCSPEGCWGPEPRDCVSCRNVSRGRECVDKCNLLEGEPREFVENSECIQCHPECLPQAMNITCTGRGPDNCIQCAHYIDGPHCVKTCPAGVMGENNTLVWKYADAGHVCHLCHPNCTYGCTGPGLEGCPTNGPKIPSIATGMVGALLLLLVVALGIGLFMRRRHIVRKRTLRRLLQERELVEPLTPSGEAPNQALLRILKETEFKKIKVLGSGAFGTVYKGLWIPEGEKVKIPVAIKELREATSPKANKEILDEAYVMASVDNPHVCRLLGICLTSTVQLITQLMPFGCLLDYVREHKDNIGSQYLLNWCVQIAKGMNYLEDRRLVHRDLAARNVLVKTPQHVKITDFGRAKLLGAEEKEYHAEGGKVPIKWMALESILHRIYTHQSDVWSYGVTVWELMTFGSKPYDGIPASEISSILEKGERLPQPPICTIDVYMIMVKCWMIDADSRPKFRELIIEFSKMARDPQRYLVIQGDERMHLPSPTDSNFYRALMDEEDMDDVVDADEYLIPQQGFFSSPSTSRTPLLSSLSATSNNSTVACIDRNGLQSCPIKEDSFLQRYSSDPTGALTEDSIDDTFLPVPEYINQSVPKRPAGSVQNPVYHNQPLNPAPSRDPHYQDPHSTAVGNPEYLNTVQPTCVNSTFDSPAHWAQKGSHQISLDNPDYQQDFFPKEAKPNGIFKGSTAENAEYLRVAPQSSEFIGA
In short: as §1

EGFR L858R/T790M = biological target: T3, EGFR L858R/T790M (Homo sapiens, UniProt P00533, L858R/T790M); assay: Inhibition of EGFR L858R/T790M biochemical enzymatic activity (HTRF); conditions: EGFR L858R-T790M, 1 mM ATP, 1 h, room temperature, read-out: IC50 (nM) @L858R-T790M
T3 construct: purchased Carna Bio
T3 sequence (P00533 25-1210 T790M/L858R): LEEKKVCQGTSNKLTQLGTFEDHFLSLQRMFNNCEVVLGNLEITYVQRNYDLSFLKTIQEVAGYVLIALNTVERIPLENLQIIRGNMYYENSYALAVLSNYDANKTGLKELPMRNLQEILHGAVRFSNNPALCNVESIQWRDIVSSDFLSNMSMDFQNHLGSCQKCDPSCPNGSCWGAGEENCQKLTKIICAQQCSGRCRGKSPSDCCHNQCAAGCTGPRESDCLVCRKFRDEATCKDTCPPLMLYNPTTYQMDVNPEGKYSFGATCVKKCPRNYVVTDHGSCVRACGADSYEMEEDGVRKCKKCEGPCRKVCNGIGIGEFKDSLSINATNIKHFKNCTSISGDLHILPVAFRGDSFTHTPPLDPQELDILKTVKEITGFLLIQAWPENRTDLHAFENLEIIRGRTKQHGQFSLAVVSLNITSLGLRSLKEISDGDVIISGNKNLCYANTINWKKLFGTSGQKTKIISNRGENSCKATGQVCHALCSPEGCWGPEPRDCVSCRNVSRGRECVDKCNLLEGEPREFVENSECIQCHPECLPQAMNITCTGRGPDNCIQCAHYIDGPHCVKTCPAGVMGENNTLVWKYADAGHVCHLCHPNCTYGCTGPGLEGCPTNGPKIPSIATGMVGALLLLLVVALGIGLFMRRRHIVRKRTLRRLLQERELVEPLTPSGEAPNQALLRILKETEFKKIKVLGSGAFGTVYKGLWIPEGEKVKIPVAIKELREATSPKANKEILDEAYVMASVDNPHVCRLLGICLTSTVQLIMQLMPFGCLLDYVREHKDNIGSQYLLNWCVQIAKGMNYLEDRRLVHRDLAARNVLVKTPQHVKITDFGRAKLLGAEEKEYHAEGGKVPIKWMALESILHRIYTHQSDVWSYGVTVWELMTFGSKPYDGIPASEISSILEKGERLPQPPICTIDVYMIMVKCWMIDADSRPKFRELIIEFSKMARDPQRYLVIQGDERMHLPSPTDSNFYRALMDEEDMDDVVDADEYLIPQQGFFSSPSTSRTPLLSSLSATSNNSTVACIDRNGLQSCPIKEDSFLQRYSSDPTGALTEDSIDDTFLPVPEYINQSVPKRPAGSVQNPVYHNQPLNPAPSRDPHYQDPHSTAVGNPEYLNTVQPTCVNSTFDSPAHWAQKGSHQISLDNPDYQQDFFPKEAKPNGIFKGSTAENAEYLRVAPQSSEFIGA
In short: as §1

EGFR Exon19Del = biological target: T4, EGFR Exon19Del (Homo sapiens, UniProt P00533, DEL746-750); assay: Inhibition of EGFR Exon19Del biochemical enzymatic activity (HTRF); conditions: EGFR Del19, 1 mM ATP, 1 h, room temperature, read-out: IC50 @Del19
T4 construct: purchased Carna Bio
In short: as §1

EGFR Exon19Del/T790M = biological target: T5, EGFR Exon19Del/T790M (Homo sapiens, UniProt P00533, DEL746-750/T790M); assay: Inhibition of EGFR Exon19Del/T790M biochemical enzymatic activity (HTRF); conditions: EGFR Del19-T790M, 1 mM ATP, 1 h, room temperature, read-out: IC50 (nM) @Del19-T790M
T5 construct: purchased Carna Bio
In short: as §1

EGFR[T790M/C797S/L858R] = biological target: T6, EGFR[T790M/C797S/L858R] (Homo sapiens, UniProt P00533, C797S/L858R/T790M); assay: Inhibition of EGFR[T790M/C797S/L858R] biochemical enzymatic activity (HTRF); conditions: EGFR T790M-C797S-L858R, 1 mM ATP, 1 h, room temperature, read-out: IC50 (nM) @T790M- C797S - L858R
T6 construct: purchased Carna Bio
T6 sequence (P00533 25-1210 T790M/C797S/L858R): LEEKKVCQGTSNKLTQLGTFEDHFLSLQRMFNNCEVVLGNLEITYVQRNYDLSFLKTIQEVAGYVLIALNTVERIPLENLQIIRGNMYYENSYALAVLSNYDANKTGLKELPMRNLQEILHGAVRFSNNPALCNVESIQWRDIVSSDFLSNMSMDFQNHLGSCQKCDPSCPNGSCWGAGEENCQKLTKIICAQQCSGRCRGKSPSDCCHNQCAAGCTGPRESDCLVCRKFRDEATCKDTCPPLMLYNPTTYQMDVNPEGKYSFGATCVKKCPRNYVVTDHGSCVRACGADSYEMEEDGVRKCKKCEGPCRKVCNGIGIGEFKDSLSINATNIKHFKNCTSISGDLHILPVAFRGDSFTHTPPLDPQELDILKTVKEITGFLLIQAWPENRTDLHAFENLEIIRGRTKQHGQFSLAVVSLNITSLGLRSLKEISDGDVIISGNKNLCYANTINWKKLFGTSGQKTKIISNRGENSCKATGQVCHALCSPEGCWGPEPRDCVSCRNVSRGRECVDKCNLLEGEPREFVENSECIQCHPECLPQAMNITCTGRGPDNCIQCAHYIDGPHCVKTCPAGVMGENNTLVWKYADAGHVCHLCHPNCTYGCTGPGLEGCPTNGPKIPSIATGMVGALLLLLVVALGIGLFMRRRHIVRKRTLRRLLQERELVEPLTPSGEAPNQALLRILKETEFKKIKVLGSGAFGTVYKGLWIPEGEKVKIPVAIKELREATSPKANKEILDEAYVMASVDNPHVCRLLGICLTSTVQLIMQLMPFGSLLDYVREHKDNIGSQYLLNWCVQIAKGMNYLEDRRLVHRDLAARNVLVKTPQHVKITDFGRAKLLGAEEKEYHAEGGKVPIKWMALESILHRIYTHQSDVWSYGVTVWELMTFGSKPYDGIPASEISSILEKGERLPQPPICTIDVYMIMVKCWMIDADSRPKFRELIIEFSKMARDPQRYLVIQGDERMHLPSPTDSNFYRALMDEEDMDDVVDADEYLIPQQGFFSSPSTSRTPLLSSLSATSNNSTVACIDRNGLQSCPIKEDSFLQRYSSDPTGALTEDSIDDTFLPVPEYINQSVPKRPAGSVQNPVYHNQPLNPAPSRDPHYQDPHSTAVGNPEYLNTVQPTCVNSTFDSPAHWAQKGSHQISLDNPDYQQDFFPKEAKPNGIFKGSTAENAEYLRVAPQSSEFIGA
In short: as §1

[1] = biological target: T7, EGFR[T790M/C797S/d746-750] (Homo sapiens, UniProt P00533, C797S/DEL746-750/T790M); assay: Inhibition of EGFR[T790M/C797S/d746-750] biochemical enzymatic activity (HTRF); conditions: EGFR T790M-C797S-Del19, 1 mM ATP, 1 h, room temperature, read-out: IC50 (nM) @T790M - C797S - Del19
T7 construct: purchased Carna Bio
In short: as §1

EGFR (d746-750 C797S) = biological target: T8, EGFR (d746-750 C797S) (Homo sapiens, UniProt P00533, C797S/DEL746-750); assay: Inhibition of EGFR (d746-750 C797S) biochemical enzymatic activity (HTRF); conditions: EGFR Del19-C797S, 1 mM ATP, 1 h, room temperature, read-out: IC50 (nM) @Del19-C797S
T8 construct: purchased signalchem
In short: as §1

EGFR (C797S L858R) = biological target: T9, EGFR (C797S L858R) (Homo sapiens, UniProt P00533, C797S/L858R); assay: Inhibition of EGFR (C797S L858R) biochemical enzymatic activity (HTRF); conditions: EGFR L858-C797S, 1 mM ATP, 1 h, room temperature, read-out: IC50 (nM) @L858-C797S
T9 construct: purchased signalchem
T9 sequence (P00533 25-1210 C797S/L858R): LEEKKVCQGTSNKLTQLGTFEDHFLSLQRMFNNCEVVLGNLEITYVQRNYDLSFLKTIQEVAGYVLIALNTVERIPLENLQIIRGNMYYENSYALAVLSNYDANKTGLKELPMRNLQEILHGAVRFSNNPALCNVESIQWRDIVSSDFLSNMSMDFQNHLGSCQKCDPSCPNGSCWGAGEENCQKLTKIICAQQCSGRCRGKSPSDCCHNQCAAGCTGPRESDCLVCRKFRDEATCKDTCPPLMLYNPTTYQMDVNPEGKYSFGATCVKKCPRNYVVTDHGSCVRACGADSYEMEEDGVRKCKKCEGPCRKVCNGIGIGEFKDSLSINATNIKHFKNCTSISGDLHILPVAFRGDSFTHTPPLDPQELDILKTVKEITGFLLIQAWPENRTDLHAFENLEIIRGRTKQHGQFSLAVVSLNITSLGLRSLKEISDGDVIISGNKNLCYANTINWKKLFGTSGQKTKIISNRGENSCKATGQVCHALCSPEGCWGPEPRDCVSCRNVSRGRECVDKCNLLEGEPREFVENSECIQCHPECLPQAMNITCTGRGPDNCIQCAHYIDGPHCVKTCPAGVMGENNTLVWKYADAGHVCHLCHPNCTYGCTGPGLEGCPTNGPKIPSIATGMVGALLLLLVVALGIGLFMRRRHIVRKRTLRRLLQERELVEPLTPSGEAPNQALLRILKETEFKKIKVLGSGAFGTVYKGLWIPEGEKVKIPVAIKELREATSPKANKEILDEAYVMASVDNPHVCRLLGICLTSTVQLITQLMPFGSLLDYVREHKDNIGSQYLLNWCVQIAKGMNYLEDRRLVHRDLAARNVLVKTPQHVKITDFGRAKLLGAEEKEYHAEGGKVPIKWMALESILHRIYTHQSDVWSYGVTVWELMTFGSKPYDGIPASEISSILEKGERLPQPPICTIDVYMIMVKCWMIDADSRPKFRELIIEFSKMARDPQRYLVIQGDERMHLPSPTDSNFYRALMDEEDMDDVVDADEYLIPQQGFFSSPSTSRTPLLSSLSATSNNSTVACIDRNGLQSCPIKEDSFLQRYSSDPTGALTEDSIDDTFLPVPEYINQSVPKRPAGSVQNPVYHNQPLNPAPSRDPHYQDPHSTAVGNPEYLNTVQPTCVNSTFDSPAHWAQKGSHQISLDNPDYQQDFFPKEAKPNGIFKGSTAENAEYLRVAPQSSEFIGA
In short: as §1

[2] = test system: Ba/F3 cells expressing EGFR mutations; assay: Cell proliferation assay, Ba/F3 cells expressing EGFR mutations (CellTiter-Glo, 72 hours); format: cell-based; conditions: CellTiter-Glo
In short: (§2)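 Ba/F3 cells (5000/well) and PC-9 cells (500/well, RPMI1640 with 10% FBS) were plated overnight and then dosed with a compound concentration series. Viable cells were read at day 0 (G0) and after treatment (G3). GI50 came from curve fits of G0-corrected proliferation relative to DMSO.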

PC-9 = assay: Cell proliferation assay, PC-9 cells (CellTiter-Glo, 72 hours); format: cell-based; conditions: PC9 cells, CellTiter-Glo, read-out: PC9 GI50
In short: as §2

A-431 = assay: Cell proliferation GI50, A-431 cells (Table 6); format: cell-based
[3] = Mus musculus, BaF3, 72 h, BaF3 cells, EGFR DEL19-C797S, read-out: DEL19-C797S/BaF3 GI50
[4] = Mus musculus, BaF3, 72 h, BaF3 cells, EGFR DEL19-T790-C797S, read-out: DEL19-T790-C797S/BaF3 GI50
[5] = Mus musculus, BaF3, 72 h, BaF3 cells, EGFR L858R, read-out: L858R/BaF3 GI50
[6] = Mus musculus, BaF3, 72 h, BaF3 cells, EGFR L858R-C797S, read-out: L858R-C797S/BaF3 GI50
[7] = Mus musculus, BaF3, 72 h, BaF3 cells, EGFR L858R-T790-C797S, read-out: L858R-T790-C797S/BaF3 GI50
[8] = Mus musculus, BaF3, 72 h, BaF3 cells, EGFR L858R-T790M, read-out: L858R-T790M/BaF3 GI50
[9] = Mus musculus, BaF3, 72 h, EGFR DEL19-T790M, read-out: DEL19-T790M GI50
[10] = Homo sapiens, A-431, A-431 cells
[11] = BaF3 cells, EGFR DEL19-C797S, read-out: DEL19-C797S/BaF3 GI50
[12] = BaF3 cells, EGFR DEL19-T790-C797S, read-out: DEL19-T790-C797S/BaF3 GI50
[13] = BaF3 cells, EGFR L858R, read-out: L858R/BaF3 GI50
[14] = BaF3 cells, EGFR L858R-C797S, read-out: L858R-C797S/BaF3 GI50
[15] = BaF3 cells, EGFR L858R-T790-C797S, read-out: L858R-T790-C797S/BaF3 GI50
[16] = BaF3 cells, EGFR L858R-T790M, read-out: L858R-T790M/BaF3 GI50
[17] = EGFR DEL19-T790M, read-out: DEL19-T790M GI50

| Compound | IC50 (EGFR wild type) [nM] | IC50 (EGFR L858R) [nM] | IC50 (EGFR L858R/T790M) [nM] | IC50 (EGFR Exon19Del) [nM] | IC50 (EGFR Exon19Del/T790M) [nM] | IC50 (EGFR[T790M/C797S/L858R]) [nM] | IC50 [1] [nM] | IC50 (EGFR (d746-750 C797S)) [nM] | IC50 (EGFR (C797S L858R)) [nM] | GI50 [2, 3] [nM] | GI50 [2, 4] [nM] | GI50 [2, 5] [nM] | GI50 [2, 6] [nM] | GI50 [2, 7] [nM] | GI50 [2, 8] [nM] | GI50 [2, 9] [nM] | GI50 (PC-9; Homo sapiens, PC-9, 72 h) [nM] | GI50 (A-431; [10]) [nM] | further results |
| --- | --- | --- | --- | --- | --- | --- | --- | --- | --- | --- | --- | --- | --- | --- | --- | --- | --- | --- | --- |
| C[C@@H]1CCCOc2c(cnn2C)-c2cc(cn(C)c2=O)C(=O)Nc2nc3ccc(N4CC(N5CCN(C)CC5)C4)cc3n2C1 [Example A46] | 104 | 14 | 8.5 | 2.6 | 4.1 | 5.7 | 3.9 | 2.2 | 8.5 | 1.2 | 6.8 | 3.1 | 2.4 | 2 | 12 | 8.1 | 5.4 | 221 |  |
| CN1CCC2(CN(c3ccc4nc5n(c4c3)C34CCC(CN(CCOc6c(cnn6C)-c6cc(cn(C)c6=O)C(=O)N5)C3)C4)C2)C(F)(F)C1 (single isomer, unassigned) [Example A91B] | 110 | 11 | 12 | 4 | 9.7 | 6.1 | 6.7 | 2.9 | 8 |  |  |  |  |  |  |  |  |  | GI50 [2, 11]: 0.75 nM; GI50 [2, 12]: 2.2 nM; GI50 [2, 13]: 2.6 nM; GI50 [2, 14]: 3.9 nM; GI50 [2, 15]: 4.6 nM; GI50 [2, 16]: 11 nM; GI50 [2, 17]: 3.1 nM; GI50 (PC-9): 25 nM; GI50 (A-431; A-431 cells): 1690 nM |
| C[C@@H]1CCCOc2c(cnn2C)-c2cc(cn(C)c2=O)C(=O)Nc2nc3ccc(N4CC5(CCN(C)CC5(F)F)C4)cc3n2C1 [Example A56] | 501 | 35 | 32 | 9.1 | 17 | 19 | 16 | 5.5 | 22 | 3.4 | 11 | 12 | 12 | 10 | 26 | 17 | 52 | 436 |  |
| CN1CCC2(CC1)CCN(c1ccc3nc4n(c3c1)C13CCC(CN(CCOc5c(cnn5C)-c5cc(cn(C)c5=O)C(=O)N4)C1)C3)C2 (single isomer, unassigned) [Example A88A] | > 5000 | > 5000 | > 5000 | 477 | > 5000 | > 5000 | > 5000 | 1160 | > 5000 |  |  |  |  |  |  |  |  |  | GI50 [2, 11]: 57 nM; GI50 [2, 12]: 159 nM; GI50 [2, 13]: 119 nM; GI50 [2, 14]: 100 nM; GI50 [2, 15]: 252 nM; GI50 [2, 16]: 361 nM; GI50 [2, 17]: 163 nM; GI50 (PC-9): 611 nM; GI50 (A-431; A-431 cells): 6260 nM |
| C[C@@H]1CCCOc2c(cnn2C)-c2cc(cn(C)c2=O)C(=O)Nc2nc3ccc(N(C)CCN(C)C)cc3n2C1 [Example A36] | 193 | 30 | 8 | 3 | 2.5 | 4.9 | 2.4 | 2.1 | 14 | 2.1 | 6 | 5.1 | 5.9 | 4.7 | 23 | 7.8 | 14 | 591 |  |
| CCn1cc2cc(c1=O)-c1cnn(C)c1OCCC[C@@H](C)Cn1c(nc3ccc(N4CCN(C)CC4)cc31)NC2=O [Example A14, (11R)-26-Ethyl-5,11-dimethyl-16-(4-methylpiperazin-1-yl)-7-oxa-4,5,13,20,22,26-hexaazapentacyclo[22.3.1.0^{2,6}.0^{13,21}.0^{14,19}]octacosa-1(28),2(6),3,14,16,18,20,24-octaene-23,27-dione] | > 5000 | > 5000 | > 5000 | 144 | 132 | > 5000 | 59 | 63 | > 5000 | 57 | 356 | 305 | 188 | 459 | 866 | 462 | 152 | 2240 |  |
| C[C@@H]1CCCOc2c(cnn2C)-c2cc(cn(C)c2=O)C(=O)Nc2nc3ccc(N4CCNCC4)cc3n2C1 [Example A55] | 103 | 16 | 8.4 | 3.7 | 3.7 | 7.2 | 4.4 | 1.8 | 8.4 | 4.6 | 25 | 26 | 31 | 29 | 52 | 36 | 51 | 1280 |  |
| C[C@@H]1CCCOc2c(cnn2C)-c2cc(cn(C)c2=O)C(=O)Nc2nc3ccc4c(c3n2C1)CCN(C)C4 [Example A103, (11R)-5,11,18,30-tetramethyl-7-oxa-4,5,13,18,24,26,30-heptaazahexacyclo[26.3.1.0^{2,6}.0^{13,25}.0^{14,23}.0^{15,20}]dotriaconta-1(32),2(6),3,14,20,22,24,28-octaene-27,31-dione] | > 5000 | 168 | 65 | 7.4 | 1.8 | 20 | 1.3 | 5.4 | 68 | 2.7 | 7 | 26 | 17 | 10 | 72 | 18 | 32 | 1680 |  |

From patent US20260365670A1, “EGFR INHIBITORS AND USES THEREOF” (DIZAL (JIANGSU) PHARMACEUTICAL CO., LTD., priority 2022, published 2026)
